Source: PubChem BioAssay (NCI)
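GI50: concentration for 50% inhibition of growth. TGI: concentration producing complete growth inhibition.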

Key:
Experiment in all cases: growth of human tumour cells (NCI), 384-well format
NCI-H322M lung = test system: NCI-H322M lung
HCT-116 colon = test system: HCT-116 colon
ACHN renal = test system: ACHN renal
HCT-15 colon = test system: HCT-15 colon
CAKI-1 renal = test system: CAKI-1 renal
SF-539 CNS = test system: SF-539 CNS
T-47D breast = test system: T-47D breast
COLO 205 colon = test system: COLO 205 colon
SF-268 CNS = test system: SF-268 CNS
LOX IMVI melanoma = test system: LOX IMVI melanoma
IGROV1 ovarian = test system: IGROV1 ovarian
OVCAR-8 ovarian = test system: OVCAR-8 ovarian
MDA-MB-231 breast = test system: MDA-MB-231 breast
MOLT-4 leukemia = test system: MOLT-4 leukemia
SK-MEL-28 melanoma = test system: SK-MEL-28 melanoma
A549 NSCLC = test system: A549 NSCLC
U251 glioblastoma = test system: U251 glioblastoma
NCI-H226 lung = test system: NCI-H226 lung
DU-145 prostate = test system: DU-145 prostate
HT29 colon = test system: HT29 colon
OVCAR-5 ovarian = test system: OVCAR-5 ovarian
SK-OV-3 ovarian = test system: SK-OV-3 ovarian
A498 renal = test system: A498 renal
SN12C renal = test system: SN12C renal
MCF7 breast = test system: MCF7 breast
HOP-62 NSCLC = test system: HOP-62 NSCLC
HL-60(TB) leukemia = test system: HL-60(TB) leukemia
SNB-19 CNS = test system: SNB-19 CNS
HS 578T breast = test system: HS 578T breast
SR leukemia = test system: SR leukemia
UACC-257 melanoma = test system: UACC-257 melanoma
RXF 393 renal = test system: RXF 393 renal
SF-295 CNS = test system: SF-295 CNS
SK-MEL-5 melanoma = test system: SK-MEL-5 melanoma
PC-3 prostate = test system: PC-3 prostate
SNB-75 CNS = test system: SNB-75 CNS
NCI/ADR-RES ovarian = test system: NCI/ADR-RES ovarian
OVCAR-3 ovarian = test system: OVCAR-3 ovarian
UACC-62 melanoma = test system: UACC-62 melanoma
TK-10 renal = test system: TK-10 renal
NCI-H23 lung = test system: NCI-H23 lung
M14 melanoma = test system: M14 melanoma
MDA-MB-435 melanoma = test system: MDA-MB-435 melanoma
NCI-H522 lung = test system: NCI-H522 lung
MALME-3M melanoma = test system: MALME-3M melanoma
HOP-92 NSCLC = test system: HOP-92 NSCLC
EKVX NSCLC = test system: EKVX NSCLC
NCI-H460 NSCLC = test system: NCI-H460 NSCLC
OVCAR-4 ovarian = test system: OVCAR-4 ovarian
BT-549 breast = test system: BT-549 breast
MDA-MB-468 breast = test system: MDA-MB-468 breast
KM12 colon = test system: KM12 colon
HCC-2998 colon = test system: HCC-2998 colon

## O=C(NO)c1cnc(N2CCN(S(=O)(=O)c3ccc4ccccc4c3)CC2)nc1
NCI-H322M lung
  GI50: 0.0792 µM
  TGI: 0.261 µM
HCT-116 colon
  GI50: 0.032 µM
  TGI: 0.12 µM
ACHN renal
  GI50: 0.139 µM
  TGI: 0.294 µM
HCT-15 colon
  GI50: 0.0982 µM
  TGI: 0.272 µM
CAKI-1 renal
  GI50: 0.0947 µM
  TGI: 0.222 µM
SF-539 CNS
  GI50: 0.0824 µM
  TGI: 0.409 µM
T-47D breast
  GI50: 0.0389 µM
  TGI: 0.168 µM
COLO 205 colon
  GI50: 0.129 µM
  TGI: 0.263 µM
SF-268 CNS
  GI50: 0.102 µM
  TGI: 0.246 µM
LOX IMVI melanoma
  GI50: 0.0472 µM
  TGI: 0.157 µM
IGROV1 ovarian
  GI50: 0.0658 µM
  TGI: 0.195 µM
OVCAR-8 ovarian
  GI50: 0.0192 µM
  TGI: 0.14 µM
MDA-MB-231 breast
  GI50: 0.129 µM
  TGI: 0.343 µM
MOLT-4 leukemia
  GI50: 0.0181 µM
  TGI: 0.0324 µM
SK-MEL-28 melanoma
  GI50: 0.0396 µM
  TGI: 0.146 µM
A549 NSCLC
  GI50: 0.0692 µM
  TGI: 0.229 µM
U251 glioblastoma
  GI50: 0.0504 µM
  TGI: 0.17 µM
NCI-H226 lung
  GI50: 0.136 µM
  TGI: 0.288 µM
DU-145 prostate
  GI50: 0.0294 µM
  TGI: 0.095 µM
HT29 colon
  GI50: 0.0611 µM
  TGI: 0.197 µM
OVCAR-5 ovarian
  GI50: 0.037 µM
  TGI: 0.137 µM
SK-OV-3 ovarian
  GI50: 0.0854 µM
  TGI: 0.237 µM
A498 renal
  GI50: 0.0697 µM
  TGI: 0.205 µM
SN12C renal
  GI50: 0.109 µM
  TGI: 0.233 µM
MCF7 breast
  GI50: 0.0446 µM
  TGI: 0.205 µM
HOP-62 NSCLC
  GI50: 0.069 µM
  TGI: 0.263 µM
HL-60(TB) leukemia
  GI50: 0.015 µM
  TGI: 0.0287 µM
SNB-19 CNS
  GI50: 0.154 µM
  TGI: 0.299 µM
HS 578T breast
  GI50: 0.086 µM
  TGI: 0.219 µM
SR leukemia
  GI50: 0.0135 µM
  TGI: 0.0424 µM
UACC-257 melanoma
  GI50: 0.0238 µM
  TGI: 0.0853 µM
RXF 393 renal
  GI50: 0.121 µM
  TGI: 0.263 µM
SF-295 CNS
  GI50: 0.119 µM
  TGI: 0.249 µM
SK-MEL-5 melanoma
  GI50: 0.0298 µM
  TGI: 0.0612 µM
PC-3 prostate
  GI50: 0.0567 µM
  TGI: 0.239 µM
SNB-75 CNS
  GI50: 0.166 µM
  TGI: 1.26 µM
NCI/ADR-RES ovarian
  GI50: 0.0155 µM
  TGI: 0.0423 µM
OVCAR-3 ovarian
  GI50: 0.0896 µM
  TGI: 0.216 µM
UACC-62 melanoma
  GI50: 0.0417 µM
  TGI: 0.154 µM
TK-10 renal
  GI50: 0.064 µM
  TGI: 0.229 µM
NCI-H23 lung
  GI50: 0.0934 µM
  TGI: 0.334 µM
M14 melanoma
  GI50: 0.0499 µM
  TGI: 0.171 µM
MDA-MB-435 melanoma
  GI50: 0.125 µM
  TGI: 0.283 µM
NCI-H522 lung
  GI50: 0.0407 µM
  TGI: 0.163 µM
MALME-3M melanoma
  GI50: 0.0258 µM
  TGI: 0.124 µM
HOP-92 NSCLC
  GI50: 0.102 µM
  TGI: 0.31 µM
EKVX NSCLC
  GI50: 0.2 µM
  TGI: 0.911 µM
NCI-H460 NSCLC
  GI50: 0.0308 µM
  TGI: 0.138 µM
OVCAR-4 ovarian
  GI50: 0.14 µM
  TGI: 0.327 µM
BT-549 breast
  GI50: 0.128 µM
  TGI: 0.319 µM
MDA-MB-468 breast
  GI50: 0.0684 µM
  TGI: 0.384 µM
KM12 colon
  GI50: 0.113 µM
  TGI: 0.467 µM
HCC-2998 colon
  GI50: 0.0525 µM
  TGI: 0.188 µM
